These results are taken from patent US20240294548A1, “TRICYCLIC SULTAMS AND SULFAMIDES AS ANTITUMOR AGENTS” (PELOTON THERAPEUTICS INC., priority 2021, published 2024).

SMILES strings stand for the structures.

Assay [1] has as its target T1, DCAF15 RBM39 ternary complex (Homo sapiens, UniProt Q14498+Q66K64, DEL276-383).
T1 construct: Amino acids 150 to 331 of RBM39 were cloned into pGEX4T3; GST (from the pGEX4T3 vector, own knowledge) followed by a TEV cleavage site (N); made in house; host or cells: Sf9 baculovirus (DDB1ΔB/DCAF15); E. coli (RBM39 R1R2)
As to the kind of experiment: DCAF15 RBM39 complex formation assay (FRET). Type of assay: biochemical. As to conditions: FRET ratio, 20 nM DDB1DB/DCAF15, 50 nM RBM39 R1R2, overnight at 4° C.; read-out: DCAF15 RBM39 ternary complex EC50. From the text: (§1) Proteins used for the assays were as follows: Human DDA1 (UniProt:Q9BW61), DDB1 (UniPro: Q16531), and DCAF15 (UniProt: Q66K64) coding sequences were cloned into pFastBac1 vectors and were co-expressed in Sf9 cells using Bac-to-Bac baculovirus expression system (Thermo Fisher Scientific). The expression construct for DCAF15 includes a N-terminal His6-tag to facilitate the purification.
DCAF15 RBM39 Complex Formation Assay
LANCE Eu-W1024 Anti-6×His and SureLight Allophycocyanin-anti-FLAG antibodies were purchased from Perkin Elmer. Human DDB1DB and His-tagged DCAF15 were co-expressed in baculovirus/sf9 system. […] The His-tagged DCAF15 contains six histidine residues directly preceding the DCAF15 sequence without any linker. An RBM39 fragment containing RRM1 and RRM2 was expressed in E. coli.
A compound of the present disclosure in DMSO (2 μL) was transferred to a 384-well assay plate. Compound was added in 14 points, 3-fold serial dilution (1 μM to 0.6 pico molar) in DMSO. […] FRET assay buffer (25 mM HEPES, pH 7.5, 100 mM NaCl, […], 0.5 mM TCEP, 0.005% Tween-20, 0.2 nM Eu-W1024 Anti-6×His, 50 nM SureLight Allophycocyanin-anti-FLAG, 20 nM DDB1DB/DCAF15, 50 nM RBM39 R1R2) was added and the resulting solution was incubated overnight at 4° C. […] Low signal controls containing no compound and high signal controls containing 10 mM indisulam were measured for each plate.
EC50 values were calculated using Dotmatics template equation for 4-parameter fit.
Results are expressed as % formation using the following equation: […]

The target in assay [2] is T2, DCAF15 (DDA1-DDB1ΔB-DCAF15Δpro) (Homo sapiens, UniProt Q66K64, DEL276-383).
T2 construct: made in house; host or cells: Sf9 (Bac-to-Bac baculovirus)
As to the kind of experiment: DCAF15 displacement assay (displacement FRET, probe PT7795). As to conditions: displacement of PT7795 (300 nM), compound 0.01 to 100 μM, 18 hours incubation; read-out: DCAF15 displacement IC50. Type of assay: binding.
From the text: as §1
DCAF15 Displacement Assay (Displacement FRET KD)
Synthesis of the probe PT7795 is described in the article.
Binding of PT7795 to DDA1-DDB1AB-DCAF15Δpro was measured by the FRET signal between europium-labeled anti-His antibody (AD0205, Perkin Elmer) that is associated with His-tagged DCAF15 and ALX647 moiety in PT7795. […] After equilibrating for 2-3 hours at 4° C., the plate was removed from the incubator, briefly spun, then read on a Spark 10 (Tecan) at the excitation/emission wavelength of 340 nm/615 nm and 340 nm/665 nm.
Binding of compounds in this disclosure to DCAF15 was measured in a competition by the displacement of PT7795. The concentration of PT7795 was kept at 300 nM while the concentration of a compound was varied from 0.01 to 100 μM. The incubation time was increased to 18 hours for enhanced signal to noise level.
F=Fmin+(Fmax−Fmin)/(1+10^(logIC50−log[Compound])^n) (Equation 2)
The Kds can then be calculated from IC50s using Equation 3 (Cheng-Prusoff equation).

The test system of assay [3] is HCT116 human colorectal carcinoma cells. The experiment in a line: CellTiter-Glo assay (cell viability). As to conditions: HCT-116, 72 h, HCT116 cells, 3 days, CellTiter-Glo luminescence, read-out: CTG IC50. Type of assay: cell-based. On the procedure:
HCT116 human colorectal carcinoma cells were used in these experiments. HCT116 cells were obtained from ATCC. CellTiter-Glo® Luminescent Cell Viability Assay Reagent was obtained from Promega.
About 3,000 cells were seeded into 96-well plate with 100 μL of media (DMEM supplemented with 10% FBS, 100 units penicillin, and […] streptomycin per mL) the day before the experiment. For compound treatment, the master plate was prepared as follows: 100× compound stocks were prepared in a 96-well plate by 1 to 3 serial dilutions of 0.5 mM DMSO stocks. Each master plate contained serial dilution of 8 compounds, including the control compound E7820. […] of 100× compound stock was added to each well of the assay plate to give final concentrations of […]. Each concentration was tested in triplicate. After 3 days, cell viability was determined using CellTiter-Glo Luminescent Cell Viability Assay Reagent following the manufacturer's recommended protocol. Briefly, […] of CellTiter-Glo reagent was added to each well of the assay plate and the contents were mixed for 3 minutes at 600 rpm on a shaker (Thermomixer R). The plate was immediately placed in a plate reader (Synergy 2) and the luminescence signal (0.5 second per well integration time) was determined. IC50 values were calculated using Dotmatics software.

T1 sequence (Q66K64 with tags, fused parts or gaps DEL276-383): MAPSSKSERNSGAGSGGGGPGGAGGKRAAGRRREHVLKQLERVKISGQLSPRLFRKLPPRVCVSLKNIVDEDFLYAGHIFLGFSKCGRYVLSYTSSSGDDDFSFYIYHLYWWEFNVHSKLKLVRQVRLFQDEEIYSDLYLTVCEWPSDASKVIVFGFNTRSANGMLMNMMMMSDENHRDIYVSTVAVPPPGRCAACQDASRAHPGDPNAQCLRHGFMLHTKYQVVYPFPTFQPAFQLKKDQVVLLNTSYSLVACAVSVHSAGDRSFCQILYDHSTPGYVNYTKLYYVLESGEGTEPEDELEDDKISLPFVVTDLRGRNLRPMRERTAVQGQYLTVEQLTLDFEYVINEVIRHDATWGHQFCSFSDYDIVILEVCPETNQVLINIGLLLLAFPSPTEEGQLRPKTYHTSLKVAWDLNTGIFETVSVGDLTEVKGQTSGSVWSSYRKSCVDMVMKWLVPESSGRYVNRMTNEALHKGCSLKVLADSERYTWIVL
T1 sequence (Q14498 150-331, stated change not applied): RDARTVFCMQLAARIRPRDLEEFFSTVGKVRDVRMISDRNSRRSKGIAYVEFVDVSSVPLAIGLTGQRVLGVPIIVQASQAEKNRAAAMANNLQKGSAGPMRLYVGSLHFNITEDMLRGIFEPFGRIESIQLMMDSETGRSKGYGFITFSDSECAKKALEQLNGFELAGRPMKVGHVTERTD

Consider `CC(=O)N1CCC(CN2Cc3cc(Cl)c4c(Cl)c[nH]c4c3NS2(=O)=O)CC1` [Compound 45, 1-(4-((6,7-dichloro-2,2-dioxido-4,9-dihydro-[1,2,6]thiadiazino[4,3-g]indol-3(1H)-yl)methyl)piperidin-1-yl)ethan-1-one], for which the concentration giving a half-maximal response (EC50) in assay [1] came out at 0.0016 µM. Also, the IC50 in assay [2] was 0.127 µM; in assay [3], 0.0528 µM.
The corresponding values for `COCC[C@@H]1Cc2cc(Cl)c3c(Cl)c[nH]c3c2NS1(=O)=O` (single isomer, unassigned) [Compound 30] are 0.0013 µM, 2.58 µM and 0.184 µM.
On the same counts, the results for `CCCC1=Cc2ccc3c(Cl)c[nH]c3c2NS1(=O)=O` [Compound 9, 7-chloro-3-propyl-1,9-dihydro-[1,2]thiazino[4,3-g]indole 2,2-dioxide] are 0.0747 µM, not below 100 µM and 5 µM.
The corresponding values for `CS(=O)(=O)N1CCC(CN2Cc3cc(Cl)c4c(Cl)c[nH]c4c3NS2(=O)=O)CC1` [Compound 72, 6,7-dichloro-3-((1-(methylsulfonyl)piperidin-4-yl)methyl)-1,3,4,9-tetrahydro-[1,2,6]thiadiazino[4,3-g]indole 2,2-dioxide] are 0.0012 µM, 0.223 µM and 0.15 µM.
`N#Cc1ccccc1CN1Cc2cc(Cl)c3c(Cl)c[nH]c3c2NS1(=O)=O` [Compound 46, 2-((6,7-dichloro-2,2-dioxido-4,9-dihydro-[1,2,6]thiadiazino[4,3-g]indol-3(1H)-yl)methyl) benzonitrile]: the EC50 in assay [1] was 0.0016 µM. The IC50 in assay [2] came to 0.294 µM; in assay [3], 0.278 µM.
On the same counts, the results for `O=c1cccc(CN2Cc3cc(Cl)c4c(Cl)c[nH]c4c3NS2(=O)=O)[nH]1` [Compound 57, 6-((6,7-dichloro-2,2-dioxido-4,9-dihydro-[1,2,6]thiadiazino[4,3-g]indol-3(1H)-yl)methyl)pyridin-2(1H)-one] are 0.004 µM, 1 µM and 0.525 µM.
`O=c1cc(CN2Cc3cc(Cl)c4c(Cl)c[nH]c4c3NS2(=O)=O)cc[nH]1` [Compound 60, 4-((6,7-dichloro-2,2-dioxido-4,9-dihydro-[1,2,6]thiadiazino[4,3-g]indol-3(1H)-yl)methyl)pyridin-2(1H)-one]: the EC50 in assay [1] amounted to 0.0024 µM. Besides, the concentration for half-maximal inhibition (IC50) in assay [2] is 0.162 µM; in assay [3], 2.84 µM.
`CC(=O)N1CC(CN2Cc3cc(Cl)c4c(Cl)c[nH]c4c3NS2(=O)=O)C1` [Compound 47, 1-(3-((6,7-dichloro-2,2-dioxido-4,9-dihydro-[1,2,6]thiadiazino[4,3-g]indol-3(1H)-yl)methyl)azetidin-1-yl) ethan-1-one]: the EC50 in assay [1] turned out to be 0.0004 µM. In addition, the values for the IC50 in assay [2] and in assay [3] were 0.39 µM and 0.393 µM, respectively.
On the same counts, the results for `O=S1(=O)Nc2c(cc(Cl)c3c(Cl)c[nH]c23)CN1Cc1ccncc1` [Compound 20, 6,7-dichloro-3-(pyridin-4-ylmethyl)-1,3,4,9-tetrahydro-[1,2,6] thiadiazino[4,3-g] indole 2,2-dioxide] are 0.0007 µM, 1.07 µM and 0.155 µM.
On the same counts, the results for `Cc1ccc(CN2Cc3cc(Cl)c4c(Cl)c[nH]c4c3NS2(=O)=O)cn1` [Compound 48, 6,7-dichloro-3-((6-methylpyridin-3-yl)methyl)-1,3,4,9-tetrahydro-[1,2,6] thiadiazino[4,3-g]indole 2,2-dioxide] are 0.0006 µM, 0.623 µM and 0.259 µM.
On the same counts, the results for `COCCN1Cc2cc(Cl)c3c(Cl)n[nH]c3c2NS1(=O)=O` [Compound 64, 6,7-dichloro-3-(2-methoxyethyl)-1,3,4,9-tetrahydro-[1,2,6]thiadiazino[4,3-g]indazole 2,2-dioxide] are 0.01 µM, 4.56 µM and 5 µM.
For the compound `O=S1(=O)Nc2c(cc(Cl)c3c(Cl)c[nH]c23)CC1Cc1ccccc1` (stereo not drawn) [Compound 16, 3-benzyl-6,7-dichloro-1,3,4,9-tetrahydro-[1,2] thiazino[4,3-g]indole 2,2-dioxide], the EC50 in assay [1] came out at 0.001 µM. Also, the IC50 in assay [2] is 1.21 µM; in assay [3], 0.259 µM.
The corresponding values for `O=S1(=O)Nc2c(cc(Cl)c3c(Cl)c[nH]c23)CN1Cc1cccc(F)c1` [Compound 75, 6,7-dichloro-3-(3-fluorobenzyl)-1,3,4,9-tetrahydro-[1,2,6] thiadiazino[4,3-g]indole 2,2-dioxide] are 0.0023 µM, 4.32 µM and 0.85 µM.
On the same counts, the results for `O=S1(=O)Nc2c(cc(Cl)c3c(Cl)c[nH]c23)CN1CCc1ccccc1` [Compound 84, 6,7-dichloro-3-phenethyl-1,3,4,9-tetrahydro-[1,2,6] thiadiazino[4,3-g]indole 2,2-dioxide] are 0.0043 µM, 33.1 µM and 1.79 µM.
On the same counts, the results for `O=S1(=O)Nc2c(cc(Cl)c3c(Cl)c[nH]c23)CN1Cc1ccc(C(F)F)nc1` [Compound 53, 6,7-dichloro-3-((6-(difluoromethyl)pyridin-3-yl)methyl)-1,3,4,9-tetrahydro-[1,2,6]thiadiazino [4,3-g]indole 2,2-dioxide] are 0.0034 µM, 4.28 µM and 0.394 µM.
`COc1ccc(CN2Cc3cc(Cl)c4c(Cl)c[nH]c4c3NS2(=O)=O)cn1` [Compound 21, 6,7-dichloro-3-((6-methoxypyridin-3-yl)methyl)-1,3,4,9-tetrahydro-[1,2,6]thiadiazino [4,3-g]indole 2,2-dioxide]: the concentration giving a half-maximal response (EC50) in assay [1] turned out to be 0.0015 µM. Besides, the half-inhibitory concentration (IC50) was found to be 0.56 µM in assay [2] and 0.415 µM in assay [3].
The corresponding values for `O=S1(=O)Nc2c(cc(Cl)c3c(Cl)c[nH]c23)CN1Cc1ccnnc1` [Compound 67, 6,7-dichloro-3-(pyridazin-4-ylmethyl)-1,3,4,9-tetrahydro-[1,2,6] thiadiazino[4,3-g]indole 2,2-dioxide] are 0.002 µM, 0.452 µM and 0.32 µM.
Take `Cn1cnc(CN2Cc3cc(Cl)c4c(Cl)c[nH]c4c3NS2(=O)=O)n1` [Compound 37, 6,7-dichloro-3-((1-methyl-1H-1,2,4-triazol-3-yl)methyl)-1,3,4,9-tetrahydro-[1,2,6] thiadiazino[4,3-g]indole 2,2-dioxide]: in assay [1], the EC50 came out at 0.0025 µM. Further, the results for the IC50 in assay [2] and in assay [3] were 2 µM and 0.568 µM, respectively.
